Results from ChEMBL document CHEMBL3739277, “Design, synthesis, and antibacterial evaluation of novel azolylthioether quinolones as MRSA DNA intercalators” (2015).
Values after ≈ are worked out from the molar mass of the structure shown.

Assays:
Assay type in all cases: functional
[1] = system: Cyberlindnera jadinii; test: Antifungal activity against Candida utilis ATCC9950 assessed as growth inhibition incubated at 35 degC for 24 hrs by micro broth dilution method; conditions: Williopsis jadinii, ATCC9950, 24 h
[2] = system: Aspergillus flavus; test: Antifungal activity against Aspergillus flavus ATCC204304 assessed as growth inhibition incubated at 35 degC for 24 hrs by micro broth dilution method; conditions: ATCC204304, 24 h
[3] = system: Saccharomyces cerevisiae; test: Antifungal activity against Saccharomyces cerevisiae ATCC9763 assessed as growth inhibition incubated at 35 degC for 24 hrs by micro broth dilution method; conditions: ATCC9763, 24 h
[4] = system: Candida albicans; test: Antifungal activity against Candida albicans ATCC10231 assessed as growth inhibition incubated at 35 degC for 24 hrs by micro broth dilution method; conditions: ATCC10231, 24 h
[5] = Antifungal activity against Candida mycoderma ATCC9888 assessed as growth inhibition incubated at 35 degC for 24 hrs by micro broth dilution method; conditions: Kregervanrija fluxuum
[6] = system: Micrococcus luteus; test: Antibacterial activity against Micrococcus luteus ATCC4698 assessed as growth inhibition incubated at 37 degC for 24 hrs by micro broth dilution method; conditions: ATCC4698, 24 h
[7] = system: Staphylococcus aureus; test: Antibacterial activity against methicillin resistant Staphylococcus aureus N315 assessed as growth inhibition incubated at 37 degC for 24 hrs by micro broth dilution method; conditions: N315, 24 h
[8] = system: Staphylococcus aureus; test: Antibacterial activity against Staphylococcus aureus ATCC25923 assessed as growth inhibition incubated at 37 degC for 24 hrs by micro broth dilution method; conditions: ATCC25923, 24 h
[9] = system: Bacillus subtilis; test: Antibacterial activity against Bacillus subtilis ATCC6633 assessed as growth inhibition incubated at 37 degC for 24 hrs by micro broth dilution method; conditions: ATCC6633, 24 h
[10] = system: Pseudomonas aeruginosa; test: Antibacterial activity against Pseudomonas aeruginosa ATCC27853 assessed as growth inhibition incubated at 37 degC for 24 hrs by micro broth dilution method; conditions: ATCC27853, 24 h
[11] = system: Escherichia coli; test: Antibacterial activity against Escherichia coli JM109 assessed as growth inhibition incubated at 37 degC for 24 hrs by micro broth dilution method; conditions: JM109, 24 h
[12] = Antibacterial activity against Eberthella typhosa ATCC14028 assessed as growth inhibition incubated at 37 degC for 24 hrs by micro broth dilution method; conditions: ATCC14028, 24 h
[13] = Antibacterial activity against Bacillus proteus ATCC13315 assessed as growth inhibition incubated at 37 degC for 24 hrs by micro broth dilution method; conditions: ATCC13315, 24 h

Compound	MIC80 [1]	MIC80 [2]	MIC80 [3]	MIC80 [4]	MIC80 [5]	MIC [6]	MIC [7]	MIC [8]	MIC [9]	MIC [10]	MIC [11]	MIC [12]	MIC [13]
Sc1ncn(Cc2ccc(Cl)c(Cl)c2)n1	512 µg/mL (≈ 1970 µM)	512 µg/mL (≈ 1970 µM)	512 µg/mL (≈ 1970 µM)	512 µg/mL (≈ 1970 µM)	256 µg/mL (≈ 984 µM)	256 µg/mL (≈ 984 µM)	128 µg/mL (≈ 492 µM)	256 µg/mL (≈ 984 µM)	512 µg/mL (≈ 1970 µM)	512 µg/mL (≈ 1970 µM)	256 µg/mL (≈ 984 µM)	512 µg/mL (≈ 1970 µM)	512 µg/mL (≈ 1970 µM)
Cn1nnnc1SCC(O)CNC1CCN(c2c(F)cc3c(=O)c(C(=O)O)cn(C4CC4)c3c2Cl)C1 (centres undefined)	128 µg/mL (≈ 238 µM)	1 µg/mL (≈ 1.86 µM)	1 µg/mL (≈ 1.86 µM)	2 µg/mL (≈ 3.72 µM)	1 µg/mL (≈ 1.86 µM)	1 µg/mL (≈ 1.86 µM)	2 µg/mL (≈ 3.72 µM)	2 µg/mL (≈ 3.72 µM)	1 µg/mL (≈ 1.86 µM)	1 µg/mL (≈ 1.86 µM)	1 µg/mL (≈ 1.86 µM)	1 µg/mL (≈ 1.86 µM)	1 µg/mL (≈ 1.86 µM)
O=C(O)c1cn(C2CC2)c2c(Cl)c(N3CCC(NCC4CO4)C3)c(F)cc2c1=O (centres undefined)	4 µg/mL (≈ 9.48 µM)	0.5 µg/mL (≈ 1.19 µM)	0.25 µg/mL (≈ 0.593 µM)	2 µg/mL (≈ 4.74 µM)	2 µg/mL (≈ 4.74 µM)	0.25 µg/mL (≈ 0.593 µM)	–	0.5 µg/mL (≈ 1.19 µM)	0.25 µg/mL (≈ 0.593 µM)	0.5 µg/mL (≈ 1.19 µM)	0.5 µg/mL (≈ 1.19 µM)	–	0.25 µg/mL (≈ 0.593 µM)
CCn1cc(C(=O)O)c(=O)c2cc(F)c(N3CCN(CC(O)CSc4ncn(Cc5ccc(Cl)cc5Cl)n4)CC3)cc21 (centres undefined)	64 µg/mL (≈ 101 µM)	4 µg/mL (≈ 6.29 µM)	16 µg/mL (≈ 25.2 µM)	64 µg/mL (≈ 101 µM)	64 µg/mL (≈ 101 µM)	64 µg/mL (≈ 101 µM)	2 µg/mL (≈ 3.15 µM)	2 µg/mL (≈ 3.15 µM)	64 µg/mL (≈ 101 µM)	16 µg/mL (≈ 25.2 µM)	8 µg/mL (≈ 12.6 µM)	32 µg/mL (≈ 50.4 µM)	4 µg/mL (≈ 6.29 µM)
CCn1cc(C(=O)O)c(=O)c2cc(F)c(N3CCN(CC(O)Cn4cnc(S)n4)CC3)cc21 (centres undefined)	64 µg/mL (≈ 134 µM)	512 µg/mL (≈ 1070 µM)	128 µg/mL (≈ 269 µM)	128 µg/mL (≈ 269 µM)	128 µg/mL (≈ 269 µM)	64 µg/mL (≈ 134 µM)	64 µg/mL (≈ 134 µM)	128 µg/mL (≈ 269 µM)	128 µg/mL (≈ 269 µM)	64 µg/mL (≈ 134 µM)	64 µg/mL (≈ 134 µM)	64 µg/mL (≈ 134 µM)	128 µg/mL (≈ 269 µM)
O=C(O)c1cn(C2CC2)c2cc(N3CCN(CC4CO4)CC3)c(F)cc2c1=O (centres undefined)	2 µg/mL (≈ 5.16 µM)	1 µg/mL (≈ 2.58 µM)	1 µg/mL (≈ 2.58 µM)	2 µg/mL (≈ 5.16 µM)	1 µg/mL (≈ 2.58 µM)	2 µg/mL (≈ 5.16 µM)	1 µg/mL (≈ 2.58 µM)	4 µg/mL (≈ 10.3 µM)	8 µg/mL (≈ 20.6 µM)	2 µg/mL (≈ 5.16 µM)	1 µg/mL (≈ 2.58 µM)	2 µg/mL (≈ 5.16 µM)	4 µg/mL (≈ 10.3 µM)
Cn1ccnc1SCC(O)CN1CCN(c2cc3c(cc2F)c(=O)c(C(=O)O)cn3C2CC2)CC1 (centres undefined)	128 µg/mL (≈ 255 µM)	64 µg/mL (≈ 128 µM)	32 µg/mL (≈ 63.8 µM)	4 µg/mL (≈ 7.97 µM)	16 µg/mL (≈ 31.9 µM)	4 µg/mL (≈ 7.97 µM)	2 µg/mL (≈ 3.99 µM)	2 µg/mL (≈ 3.99 µM)	4 µg/mL (≈ 7.97 µM)	8 µg/mL (≈ 15.9 µM)	8 µg/mL (≈ 15.9 µM)	1 µg/mL (≈ 1.99 µM)	2 µg/mL (≈ 3.99 µM)
Cn1nnnc1SCC(O)CN1CCN(c2cc3c(cc2F)c(=O)c(C(=O)O)cn3C2CC2)CC1 (centres undefined)	256 µg/mL (≈ 508 µM)	8 µg/mL (≈ 15.9 µM)	8 µg/mL (≈ 15.9 µM)	8 µg/mL (≈ 15.9 µM)	16 µg/mL (≈ 31.8 µM)	8 µg/mL (≈ 15.9 µM)	–	–	8 µg/mL (≈ 15.9 µM)	16 µg/mL (≈ 31.8 µM)	8 µg/mL (≈ 15.9 µM)	–	4 µg/mL (≈ 7.94 µM)
NC1CCN(c2c(F)cc3c(=O)c(C(=O)O)cn(C4CC4)c3c2Cl)C1 (centres undefined) [CLINAFLOXACIN]	–	–	–	–	–	0.5 µg/mL (≈ 1.37 µM)	1 µg/mL (≈ 2.73 µM)	0.5 µg/mL (≈ 1.37 µM)	0.5 µg/mL (≈ 1.37 µM)	1 µg/mL (≈ 2.73 µM)	1 µg/mL (≈ 2.73 µM)	1 µg/mL (≈ 2.73 µM)	0.5 µg/mL (≈ 1.37 µM)
OC(Cn1cncn1)(Cn1cncn1)c1ccc(F)cc1F [FLUCONAZOLE]	8 µg/mL (≈ 26.1 µM)	256 µg/mL (≈ 836 µM)	16 µg/mL (≈ 52.2 µM)	1 µg/mL (≈ 3.27 µM)	4 µg/mL (≈ 13.1 µM)	–	–	–	–	–	–	–	–
CCn1cc(C(=O)O)c(=O)c2cc(F)c(N3CCNCC3)cc21 [NORFLOXACIN]	–	–	–	–	–	2 µg/mL (≈ 6.26 µM)	2 µg/mL (≈ 6.26 µM)	2 µg/mL (≈ 6.26 µM)	1 µg/mL (≈ 3.13 µM)	4 µg/mL (≈ 12.5 µM)	2 µg/mL (≈ 6.26 µM)	1 µg/mL (≈ 3.13 µM)	8 µg/mL (≈ 25.1 µM)
O=C(O)c1cn(C2CC2)c2cc(N3CCNCC3)c(F)cc2c1=O [CIPROFLOXACIN]	–	–	–	–	–	–	–	–	1 µg/mL (≈ 3.02 µM)	1 µg/mL (≈ 3.02 µM)	–	1 µg/mL (≈ 3.02 µM)	1 µg/mL (≈ 3.02 µM)
